# US20070010484A1, “Method for treating or inhibiting the effects of injuries or diseases that result in neuronal degeneration and method for promoting neurogenesis” (YEDA RESEARCH AND DEVELOPMENT CO. LTD., priority 2003, published 2007)
# How the values were obtained:
# human T cells [1] = experiment: T-cell chemotaxis towards SDF-1α, transwell; type: cell-based; settings: 2 h pretreatment, FN-coated transwell, 3 h, relative to untreated cells
# Procedure: Human T cells. T cells from the peripheral blood of healthy donors were isolated by negative selection using a RosetteSep™ antibody cocktail containing mabs against CD16, CD19, CD36, and CD56 (StemCell Technologies, Vancouver, BC). After incubation with the cocktail for 20 min at room temperature, blood samples were diluted in PBS with 2% fetal bovine serum, loaded on a Ficoll column (ICN Biomedical, Aurora, Ohio), and centrifuged at 1200× g for 20 min at room temperature. The cells were removed from the Ficoll column, washed, and cultured in RPMI containing antibiotics and 10% heat-inactivated FCS. T-cell chemotaxis. Migration of purified human T cells was measured with a transwell apparatus (6.5 mm diameter; Corning, New York, N.Y.) fitted with polycarbonate filters (pore size 5 μm). The filters separating the upper and lower chambers were pretreated with FN (20 μg/ml) for 1 h at 37° C. ^51[Cr]-labeled T cells were preincubated for 2 h with CSPG-DS at the indicated concentrations, and then suspended (2×10^6/ml) in RPMI containing 0.1% BSA, 0.1% L-glutamine, and antibiotics, and added to the upper chamber. The bottom chambers contained the same RPMI medium, with or without human SDF-1α (50 ng/ml). […]
# [2] = test system: retinal ganglion cells (RGCs); experiment: Experimental autoimmune uveitis (EAU), RGC survival; type: in vivo; settings: R16-immunized Lewis rats, i.p. on days 3, 6, 9, 12 and 17; counted 3 weeks after immunization; mean±SD
# Procedure: Induction of experimental autoimmune uveitis. To induce experimental autoimmune uveitis (EAU), Lewis rats were immunized with R16 (30 μg), a peptide derived from an ocular antigen IRBP emulsified in CFA containing 2.5 mg/ml M. tuberculosis. A total volume of 100 μl was injected s.c. into each rat at the root of the tail. Rats were then divided into three groups. On days 3, 6, 9, 12 and 17 after immunization the rats in the first group were injected i.p. with CSPG-DS (15 μg/rat), and rats in the second group were injected i.p. with methylprednisolone (MP. 30 mg/kg; Solu-Medrol, 125 mg/ml, Pharmacia & Upjohn, Puurs, Belgium). Rats in third group were left untreated.
# [3] = test system: delayed-type hypersensitivity response in mice; experiment: Delayed-type hypersensitivity (DTH) assay, ear swelling; type: in vivo; settings: oxazalone-sensitized Balb/c mice, most efficient concentration of 1 μg/ml, relative to untreated
# Procedure: Assay for delayed-type hypersensitivity. Groups of female inbred Balb/c mice (n=4 per group) were sensitized with 2% oxazalone (100 μl;) dissolved in acetone/olive oil (4:1 (vol/vol)) applied topically on the shaved abdominal skin. A delayed-type hypersensitivity (DTH) response was elicited 5 days later by challenge with 0.5% oxazalone in acetone/olive oil (10 μl applied topically to each side of one ear, and measured with an engineer's micrometer (Mitutoyo, Elk Grove Village, Ill., Tokyo, Japan)). Immediately before and 24 h after antigen challenge, the marked area was measured again.
# PC12 cells = experiment: PC12 cell viability after glutamate, XTT assay; type: cell-based, rat; settings: disaccharides 1 to 50 μg/ml for 45 min, glutamate 10^−3 M 15 min, XTT after 24 h
# Procedure: PC12 cell line. Rat pheochromocytoma (PC12) cells were cultured in DMEM containing horse serum and FCS, both at 8% (culture medium) or at 1% (differentiation medium).
# Cell viability assay. PC12 cells were seeded on collagen-coated 96-well plates at a density of 10^4 cells per well (in differentiation medium containing 100 ng/ml NGF). The cells were incubated with CSPG-DS or other disaccharides at the indicated concentrations for 45 min, then washed with PBS and exposed to glutamate (10^−3 M) for 15 min. The glutamate solution was washed away and replaced with DMEM for a further 24 h of incubation. The number of viable cells was then determined with the XTT viability kit according to the manufacturer's instructions.
# IFN-γ = IFN-γ secretion by anti-CD3-activated T cells, ELISA; type: cell-based, human; settings: 2 h pretreatment, then anti-CD3 activation 24 h
# Procedure: Assay of IFN-γ secretion. Human T cells were purified and maintained in culture (RPMI containing 10% FCS, 1% pyruvate, 1% glutamine, 1% antibiotics, in a humidified atmosphere of 7% CO2in air), and the cells were activated for 2 h with the indicated concentrations of CSPG-DS. In order to stimulate the cells to secrete cytokines, they were replated (1×10^6 cells in 0.5 ml culture medium per well) in 24-well plates precoated with 1 μg/ml immobilized anti-CD3 mAb (non-tissue-culture grade). After 24 h the supernatants were collected and their IFN-γ contents determined by ELISA, using anti-IFN-γ mAb (Pharmingen, San Diego, Calif.) according to the manufacturer's instructions.
# human T cells [4] = type: cell-based
# Procedure: T-cell apoptosis: T cells (2×10^6 cells/ml) were incubated for 2 h with the indicated concentrations of CSPG-DS in RPMI medium containing 10% FCS, and then plated on 24-well plates (non-tissue-culture grade) precoated with anti-CD3 mAb (1 μg/ml; overnight) and cultured for 72 h. The percentage of cells undergoing apoptosis was determined using the annexin V-detection assay (Bender MedSystem, San Bruno, Calif.). The cells were incubated for 10 min in the dark at room temperature in 200 μl of buffer containing FITC-conjugated human annexin V ([…]; Bender MedSystem, Propidium iodide (10 μl) was added to each sample, and the percentage of cells undergoing apoptosis was analyzed by FACS® at 525 nm using CELLQuest Software. Cells that stained positively for annexin V and negatively for propidium iodide corresponded to the apoptotic cells.
# [5] = test system: experimental autoimmune encephalomyelitis in mice; experiment: Experimental autoimmune encephalomyelitis (EAE); type: in vivo
# Procedure: Induction of experimental autoimmune encephalomyelitis. Mice were immunized s.c. at one site in the flank with 200 μl of emulsion consisting of myelin oligodendrocyte glycoprotein (MOG) […] (300 μg per mouse) emulsified in CFA supplemented with 500 μg of Mycobacterium tuberculosis (Difco, Detroit, Mich.). Clinical symptoms of experimental autoimmune encephalomyelitis (EAE) were examined and scored daily, as follows: 0, no clinical disease; 0.5, piloerection; 1, tail weakness; 1.5, tail paralysis; 2, hindlimb weakness; 3, hindlimb paralysis; 3.5, forelimb weakness; 4, forelimb paralysis; 5, moribund state or death.
# [6] = MOG-immunized mice, 5 μg injections on days 0, 3, 5 and 7
smiles,measurement,setting,value
"CC(=O)N[C@H]1C(O)O[C@H](COS(=O)(=O)O)[C@H](O)[C@@H]1O[C@@H]1OC(C(=O)O)=C[C@H](O)[C@H]1O (stereo partly drawn) [CSPG-DS, 2-acetoamido-2-deoxy-3-O-(β-D-gluco-4-enepyranosyluronic acid)-6-O-sulfo-D-galactose]",T-cell migration towards SDF-1α,human T cells [1],reduced
same,RGC loss relative to normal rats,[2],24±9%
same,reduction in DTH response,[3],40%
same,survival of PC12 cells exposed to glutamate,PC12 cells,protected PC12 cells from glutamate toxicity
same,secretion of IFN-γ,IFN-γ,significant reduction
same,viability of the T cells (apoptosis),human T cells [4],did not significantly affect
same,duration of the disease (EAE),[5]; [6],shortened
same,symptoms of the disease (EAE score),[5]; [6],significantly attenuated
same,EAE disease with less frequent injections,"[5]; injection on day 0 only, or days 0 and 7",alleviated the disease
